This is an account of results in patent publication US10208040B2, “Fused imidazo-piperidine JAK inhibitors” (THERAVANCE BIOPHARMA R&D IP, LLC, priority 2017, dated 2019).

Where two headings read alike, the source gives them in different places.

Test [1] relates to IL-4 stimulated STAT6 phosphorylation in CD3+ T cells. The test can be described thus: Inhibition of IL-4 stimulated pSTAT6 in CD3+ T cells. The test is classed as cell-based. The following applies: T-cell; CD3+ T cells in human PBMCs; read-out: pIC50 inhibition of IL-4 stimulated pSTAT6 (converted). Here is the method: The potency of the test compound for inhibition of interleukin-4 (IL-4) stimulated STAT6 phosphorylation was measured in CD3-positive (CD3+) T cells in human peripheral blood mononuclear cells (PBMCs) isolated from human whole blood (Stanford Blood Center) using flow cytometry. Because IL-4 signals through JAK, this assay provides a measure of JAK cellular potency.
CD3+ T cells were identified using a […] (PE) conjugated anti-CD3 antibody (Clone UCHT1, BD Biosciences), while an Alexa Fluor 647 conjugated anti-pSTAT6 antibody (pY641, Clone 18/P, BD Biosciences) was used to detect STAT6 phosphorylation.
Human peripheral blood mononuclear cells (PBMC) were isolated from human whole blood of healthy donors as in Assays 7 and 8. […] After incubation, cells were washed twice in FACS buffer before being analyzed using a LSRII flow cytometer (BD Biosciences).
To determine the inhibitory potency of the test compound in response to IL-4, the median fluorescent intensity (MFI) of pSTAT6 was measured in CD3+ T cells. IC50 values were determined from analysis of the inhibition curves of MFI vs compound concentration. Data are expressed as pIC50 (negative decadic logarithm IC50).

The subject of test [2] is alternaria-induced BALF eosinophils. The experiment in a line: Murine model of Alternaria alternata-induced eosinophilic inflammation of the lung. The test is classed as in vivo. The note with it: mouse, oropharyngeal aspiration, 48 h after alternaria challenge, maximum statistically significant percent inhibition. Here is the method:
Airway eosinophilia is a hallmark of human asthma. Alternaria alternata is a fungal aeroallergen that can exacerbate asthma in humans and induces eosinophilic inflammation in the lungs of mice (Havaux et al. Clin Exp Immunol. 2005 February; 139(2):179-88).
Seven- to nine-week old male C57 mice from Taconic were used in the study. On the day of study, animals were lightly anesthetized with isoflurane and administered either vehicle or test compound (0.03-1.0 mg/mL, 50 μL total volume over several breaths) via oropharyngeal aspiration. Animals were placed in lateral recumbency post dose and monitored for full recovery from anesthesia before being returned to their home cage. One hour later, animals were once again briefly anesthetized and challenged with either vehicle or alternaria extract (200 ug total extract delivered, 50 μL total volume) via oropharyngeal aspiration before being monitored for recovery from anesthesia and returned to their home cage. Forty-eight hours after alternaria administration, bronchoalveolar lavage fluid (BALF) was collected and eosinophils were counted in the BALF using the Advia 120 Hematology System (Siemens).
Activity in the model is evidenced by a decrease in the level of eosinophils present in the BALF of treated animals at forty-eight hours compared to the vehicle treated, alternaria challenged control animals. Data are expressed as percent inhibition of the vehicle treated, alternaria challenged BALF eosinophils response. To calculate percent inhibition, the number of BALF eosinophils for each condition is converted to percent of the average vehicle treated, alternaria challenged BALF eosinophils and subtracted from one-hundred percent.

Test [3] has as its system human eosinophils. The test can be described thus: IL-5 mediated eosinophil survival assay. The test is classed as cell-based. The note with it: for IC50: Homo sapiens, Eosinophil, read-out: pIC50 IL-5 mediated eosinophil survival (converted). How it is done:
The potency of the test compound for IL-5 mediated eosinophil survival was measured in human eosinophils isolated from human whole blood (AllCells). Because IL-5 signals through JAK, this assay provides a measure of JAK cellular potency.
Human eosinophils were isolated from fresh human whole blood (AllCells) of healthy donors. Blood was mixed with 4.5% Dextran (Sigma-Aldrich) in a 0.9% sodium chloride solution (Sigma-Aldrich). Red blood cells were left to sediment for 35 minutes. The leukocyte rich upper layer was removed and layered over Ficoll-Paque (GE Healthcare) and centrifuged at 600 g for 30 minutes. The plasma and mononuclear cell layers were removed before the granulocyte layer was lysed with water to remove any contaminating red blood cells. Eosinophils were further purified using a human eosinophil isolation kit (Miltenyi Biotec). A fraction of the purified eosinophils were incubated with anti-CD16 FITC (Miltenyi Biotec) for 10 minutes at 4° C. in the dark. Purity was analyzed using a LSRII flow cytometer (BD Biosciences).
Cells were cultured in a 37° C., 5% CO2 humidified incubator in RPMI 1640 (Life Technologies) supplemented with 10% Heat Inactivated Fetal Bovine Serum (FBS, Life Technologies), 2 mM Glutamax (Life Technologies), 25 mM HEPES (Life Technologies) and 1× Pen/Strep (Life Technologies). Cells were seeded at 10,000 cells/well in media (50 μL). The plate was centrifuged at 300 g for 5 minutes and supernatants removed. Compounds were serially diluted in DMSO and then diluted another 500-fold to a 2× final assay concentration in media. […]
After cytokine stimulation, cells were centrifuged at 300 g for 5 min and washed twice with cold DPBS (Life Technologies). To access viability and apoptosis, cells were incubated with Propidium Iodide (Thermo Fisher Scientific) and APC Annexin V (BD Biosciences) and analyzed using a LSRII flow cytometer (BD Biosciences). IC50 values were determined from analysis of the viability curves of percent cell viability vs compound concentration. Data are expressed as pIC50 (negative decadic logarithm IC50) values.

For the compound `CCCN1Cc2[nH]c(-c3n[nH]c4cc(-c5cc(F)c(O)cc5CC)ccc34)nc2C[C@H]1C(=O)N1C[C@@H]2C[C@H]1CN2C` [Example 1, ((S)-2-(6-(2-ethyl-5-fluoro-4-hydroxyphenyl)-1H-indazol-3-yl)-5-propyl-4,5,6,7-tetrahydro-3H-imidazo[4,5-c]pyridin-6-yl)((1S,4S)-5-methyl-2,5-diazabicyclo-[2.2.1]heptan-2-yl)methanone], the IC50 in test [1] was 20 nM; in test [3] (in the presence of 10 pg/ml IL-5) it was 50.1 nM; in test [3] (in the presence of 1 ng/ml IL-5), 2000 nM. Further, the “Percent Inhibition of Alternaria-induced BALF Eosinophils” value in test [2] came out at 90. In test [3], the “inhibition of IL-5 mediated human eosinophil survival (in words)” value is “potently inhibit”.

In the case of `CCc1cc(O)c(F)cc1-c1ccc2c(-c3nc4c([nH]3)CN(C(C)C)[C@H](C(=O)N3CC[C@H](N(C)C)C3)C4)n[nH]c2c1` [Example 3], the IC50 in test [1] is 10 nM. Also, in test [2], the “Percent Inhibition of Alternaria-induced BALF Eosinophils” value is on record as 93.
